Measured values from patent US20110165652A1, “COMPOSITIONS, METHODS AND SYSTEMS FOR SINGLE MOLECULE SEQUENCING” (LIFE TECHNOLOGIES CORPORATION, priority 2008, published 2011).

How the values were obtained:
Type in all cases: biochemical
[1] = tested on: 5′ fluorescein-labeled primer:template duplex; experiment: Ensemble primer extension with gamma-labeled dNTP by Phi29 mutant protein; conditions: for Ensemble Extension Activity (polymerase active): cysteine to serine variants; for Ensemble Extension Activity: γ-nucleotide incorporation / Ensemble Extension Activity: activity with base-labeled nucleotides: relative to parent Phi29 exo(−) D12A/D66A; for Ensemble Extension Activity: γ-nucleotide incorporation: 0.5 μM or 5 μM gamma-labeled dNTP, 10 seconds to 5 minutes
Description: Table 1, below, summarizes the ability of each mutant Phi29 polymerase to incorporate gamma-labeled nucleotides (as indicated in the column entitled “Ensemble Extension Activity”), fidelity of replication (as indicated in the column entitled “Fidelity”) and for activity in a single-molecule detected system, as depicted in FIGS. 20-59′ and 69-76 and associated description (see below), and indicated in the last column, entitled “Activity on Detection System.” Each and every mutation introduced into a given Phi29 mutant protein is listed in the column entitled “Mutations”; mutations are designated by the original amino acid/its position/its replacement, e.g., V250A means that valine at position 250 was replaced by alanine by site specific mutagenesis. If two or more amino acid substitutions are made, then each is designated as above and separated by a “/”. The predicted effect of a given mutation on polymerase activity, based on structure-function analysis of Phi29 polymerase, is provided in the column entitled “Expected Effect.” The various Phi29 mutants generated via selective mutagenesis, along with any applicable results of extension studies, fidelity assays and single molecule detection studies using each mutant protein, are collectively summarized in Table 1, below. To perform the extension studies, 330 nM Phi29 mutant protein and 100 nM 5′ fluorescein-labeled primer:template duplex were co-incubated in a solution comprising 50 mM Tris (pH 7.0), 2 mM MnCl2, 2 mM DTT, 0.1% Triton-X-100, 0.01% Tween-20. The reactions were initiated by addition of 0.5 μM or 5 μM of gamma-labeled dNTP, and quenched via addition of 30 mM EDTA at timepoints ranging from 10 seconds to 5 minutes. The reaction products were then separated on a 20% denaturing acrylamide gel and imaged on a Bio-Rad Molecular Imager FX. The intensity of each reaction product was quantified using Bio-Rad Quantity One software. FIGS. 20-59′ depict the results of extension studies conducted using specific Phi29 mutants.

[2] = tested on: template specifying incorporation of a single γ-labeled nucleotide; experiment: Real time on-surface single molecule detection of γ-labeled nucleotide incorporation; conditions: for Activity on Detection System: more signals: number of signals relative to parent enzyme
Experimental: Real time “On surface” experiments were performed to characterize the activity of the Phi29 variants on an exemplary single molecule sequencing system (FIGS. 72A and B). Chambered slides were prepared to facilitate injection and multiple experiments data collection from several chambers using a single slide. The template specified incorporation of a single γ-labeled nucleotide. The samples were excited using a 488 nm Argon ion laser at 2.5 mW and the data were collected at 25 ms integration time. Each stream of data was collected for 1500 frames, consecutive streams were collected for ˜5 minutes by moving to new fields of views (FOVs). FRETAN software was used to obtain the donor and acceptor traces.
After trace analysis, the selected signals (with acceptor signal over background greater than 4, i.e., ASN≧4) were characterized by examining attributes including duration, ASN and timing of signal appearance (i.e., start of signals). The variants that are of special interest include Variants 2 and 3.

[3] = tested on: 5′ fluorescein-labeled primer:template duplex; experiment: Replication fidelity: primer extension with incorrect (non-complementary) gamma-labeled nucleotide; conditions: incorrect gamma-labeled nucleotide in lieu of the complementary one
Experimental: To assay the replication fidelity of each mutant Phi29 polymerase protein, primer extensions were carried out in the same manner, except that an incorrect (i.e., non-complementary) gamma-labeled nucleotide was added to the extension mixture in lieu of the complementary nucleotide, and the amount of extended product following extension in presence of the incorrect nucleotide was analyzed.

Substance | Ensemble Extension Activity: γ-nucleotide incorporation [1] | also measured
C22S/C290S/C448S: Phi29 exo(−) (D12A/D66A) polymerase mutant | – | Ensemble Extension Activity (polymerase active) [1]: Slightly less
C22S/C290S/C530S: Phi29 exo(−) (D12A/D66A) polymerase mutant | – | Ensemble Extension Activity (polymerase active) [1]: Slightly less
C22S/C448S/C530S: Phi29 exo(−) (D12A/D66A) polymerase mutant | – | Ensemble Extension Activity (polymerase active) [1]: Slightly less
C22S: Phi29 exo(−) (D12A/D66A) polymerase mutant [Variant C22S] | – | Ensemble Extension Activity (polymerase active) [1]: Active
C290S/C448S/C530S: Phi29 exo(−) (D12A/D66A) polymerase mutant | – | Ensemble Extension Activity (polymerase active) [1]: Slightly less
C290S: Phi29 exo(−) (D12A/D66A) polymerase mutant [Variant C290S] | – | Ensemble Extension Activity (polymerase active) [1]: Active
C448S: Phi29 exo(−) (D12A/D66A) polymerase mutant [Variant C448S] | – | Ensemble Extension Activity (polymerase active) [1]: Active
C530S: Phi29 exo(−) (D12A/D66A) polymerase mutant [Variant C530S] | – | Ensemble Extension Activity (polymerase active) [1]: Active
D456S: Phi29 exo(−) (D12A/D66A) polymerase mutant [Variant D456S] | Impaired | Activity on Detection System: more signals [2]: Fewer signals.
D458N: Phi29 exo(−) (D12A/D66A) polymerase mutant [Variant D458N] | No activity | Fidelity (mis-incorporation) [3]: No activity
E375A/Q380A: Phi29 exo(−) (D12A/D66A) polymerase mutant | More efficient | Activity on Detection System: more signals [2]: 3.5x more signals.
E375C: Phi29 exo(−) (D12A/D66A) polymerase mutant [Variant E375C] | More efficient | Activity on Detection System: more signals [2]: Slightly higher; Activity on Detection System: Signals detected (timing of appearance) ([2]; relative to parent enzyme): earlier.; Activity on Detection System: high ASB signals ([2]; relative to parent enzyme): More high ASB signals.
E375W: Phi29 exo(−) (D12A/D66A) polymerase mutant [Variant E375W] | Increased γ-nucleotide | –
E375Y/V250C: Phi29 exo(−) (D12A/D66A) polymerase mutant | decreased | –
E375Y/V250D: Phi29 exo(−) (D12A/D66A) polymerase mutant | no activity | –
E375Y/V250G: Phi29 exo(−) (D12A/D66A) polymerase mutant | no activity | –
E375Y/V250H: Phi29 exo(−) (D12A/D66A) polymerase mutant | decreased rate | –
E375Y/V250K: Phi29 exo(−) (D12A/D66A) polymerase mutant | no activity | –
E375Y/V250L: Phi29 exo(−) (D12A/D66A) polymerase mutant | decreased | –
E375Y/V250P: Phi29 exo(−) (D12A/D66A) polymerase mutant | no activity | –
E375Y/V250Q: Phi29 exo(−) (D12A/D66A) polymerase mutant | decreased | –
E375Y/V250R: Phi29 exo(−) (D12A/D66A) polymerase mutant | no activity | –
E375Y/V250S: Phi29 exo(−) (D12A/D66A) polymerase mutant | decreased | –

Substance | Ensemble Extension Activity: γ-nucleotide incorporation [1] | also measured
E375Y/V250T: Phi29 exo(−) (D12A/D66A) polymerase mutant | decreased | –
E375Y/V250W: Phi29 exo(−) (D12A/D66A) polymerase mutant | no activity | –
E375Y: Phi29 exo(−) (D12A/D66A) polymerase mutant [Variant E375Y] | More efficient | Activity on Detection System: more signals [2]: 3x more signals.; Activity on Detection System: long duration signals ([2]; relative to parent enzyme): More long duration; extension (FIG. 70C, 70D) ([1]; ensemble PAGE analyses, γ-nucleotides): most significant increase in extension
E486A: Phi29 exo(−) (D12A/D66A) polymerase mutant [Variant E486A] | Slightly decreased γ- | –
E486D: Phi29 exo(−) (D12A/D66A) polymerase mutant [Variant E486D] | Decreased γ-nucleotide | –
K371A: Phi29 exo(−) (D12A/D66A) polymerase mutant [Variant K371A] | Slightly lower than | –
K371T: Phi29 exo(−) (D12A/D66A) polymerase mutant [Variant K371T] | Slightly lower than | –
K383A: Phi29 exo(−) (D12A/D66A) polymerase mutant [Variant K383A] | Slightly lower than | –
K383P: Phi29 exo(−) (D12A/D66A) polymerase mutant [Variant K383P] | decreased γ-nucleotide | –
K383R: Phi29 exo(−) (D12A/D66A) polymerase mutant [Variant K383R] | Slightly lower than | –
K478A: Phi29 exo(−) (D12A/D66A) polymerase mutant [Variant K478A] | Decreased γ-nucleotide | –
K512A: Phi29 exo(−) (D12A/D66A) polymerase mutant [Variant K512A] | Slightly decreased γ- | –
L384R: Phi29 exo(−) (D12A/D66A) polymerase mutant [Variant L384R] | Slightly decreased γ- | –
N387A: Phi29 exo(−) (D12A/D66A) polymerase mutant [Variant N387A] | Significantly decreased γ- | Activity on Detection System: more signals [2]: Fewer signals.
N387Y: Phi29 exo(−) (D12A/D66A) polymerase mutant [Variant N387Y] | Significantly decreased γ- | –
S388G: Phi29 exo(−) (D12A/D66A) polymerase mutant [Variant S388G] | Decreased γ-nucleotide | –
V250A/E375A/Q380A/D456E: Phi29 exo(−) (D12A/D66A) polymerase mutant | Impaired | –
V250I/E375A/Q380A: Phi29 exo(−) (D12A/D66A) polymerase mutant | Decreased rate | –
V250I/E375C: Phi29 exo(−) (D12A/D66A) polymerase mutant | Decreased rate | –
V250I/E375Y: Phi29 exo(−) (D12A/D66A) polymerase mutant | Decreased rate | –
V250I: Phi29 exo(−) (D12A/D66A) polymerase mutant [Variant V250I] | Decreased rate | Activity on Detection System: long duration signals ([2]; relative to parent enzyme): More long duration
Y254F: Phi29 exo(−) (D12A/D66A) polymerase mutant [Variant Y254F] | Decreased γ-nucleotide | Ensemble Extension Activity: activity with base-labeled nucleotides [1]: incorporation, but increased
Y254V: Phi29 exo(−) (D12A/D66A) polymerase mutant [Variant Y254V] | Decreased γ-nucleotide | Ensemble Extension Activity: activity with base-labeled nucleotides [1]: incorporation, but increased
